The supplement of paper PMC8149375

Assays:
Conditions in all cases: treatment: drug alone; 5 days
TK-10 [1] = test: GI50, drug alone; higher = less potent
Protocol: (§1)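 Primary HTS: 8 RCC cell lines treated with 8 doses (up to 10 uM) of each library drug alone for 5 days; viability read by CellTiter-Glo and normalised to DMSO. GI50 was fitted with XLfit (4-parameter), AUC is the area under the dose-response curve, and minimum viability is the lowest fraction of DMSO viability across doses.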

SN12C [2] = test: GI50, drug alone; higher = less potent
Protocol: as §1

786-O [3] = test: GI50, drug alone; higher = less potent
Protocol: as §1

UO-31 [4] = test: GI50, drug alone; higher = less potent
Protocol: as §1

ACHN [5] = test: GI50, drug alone; higher = less potent
Protocol: as §1

CAKI-1 [6] = test: GI50, drug alone; higher = less potent
Protocol: as §1

A498 [7] = test: GI50, drug alone; higher = less potent
Protocol: as §1

769-P [8] = test: GI50, drug alone; higher = less potent
Protocol: as §1

TK-10 [9] = test: AUC of dose-response viability curve, drug alone (arbitrary (AUC of normalised viability)); higher = less growth inhibition
Protocol: as §1

SN12C [10] = test: as above
Protocol: as §1

786-O [11] = test: as above
Protocol: as §1

UO-31 [12] = test: as above
Protocol: as §1

ACHN [13] = test: as above
Protocol: as §1

CAKI-1 [14] = test: as above
Protocol: as §1

A498 [15] = test: as above
Protocol: as §1

769-P [16] = test: as above
Protocol: as §1

TK-10 [17] = test: minimum viability across doses, drug alone, relative to DMSO (fraction); higher = less growth inhibition
Protocol: as §1

SN12C [18] = test: as above
Protocol: as §1

786-O [19] = test: as above
Protocol: as §1

UO-31 [20] = test: as above
Protocol: as §1

ACHN [21] = test: as above
Protocol: as §1

CAKI-1 [22] = test: as above
Protocol: as §1

A498 [23] = test: as above
Protocol: as §1

769-P [24] = test: as above
Protocol: as §1

Row | SMILES | GI50, drug alone (786-O [3]) | GI50, drug alone (ACHN [5]) | GI50, drug alone (TK-10 [1]) | GI50, drug alone (SN12C [2]) | GI50, drug alone (UO-31 [4]) | GI50, drug alone (CAKI-1 [6]) | GI50, drug alone (A498 [7]) | GI50, drug alone (769-P [8]) | AUC of dose-response viability curve (TK-10 [9]) | AUC of dose-response viability curve (SN12C [10]) | AUC of dose-response viability curve (786-O [11]) | AUC of dose-response viability curve (UO-31 [12]) | AUC of dose-response viability curve (ACHN [13]) | AUC of dose-response viability curve (CAKI-1 [14]) | AUC of dose-response viability curve (A498 [15]) | AUC of dose-response viability curve (769-P [16]) | minimum viability across doses (TK-10 [17]) | minimum viability across doses (SN12C [18]) | minimum viability across doses (786-O [19]) | minimum viability across doses (UO-31 [20]) | minimum viability across doses (ACHN [21]) | minimum viability across doses (CAKI-1 [22]) | minimum viability across doses (A498 [23]) | minimum viability across doses (769-P [24])
1 | CCCCCCCCCCCCc1ccc(S(=O)(=O)Nc2nncs2)cc1 [PHT-427] | > 10000 nM | > 10000 nM | > 10000 nM | > 10000 nM | > 10000 nM | > 10000 nM | > 10000 nM | > 10000 nM | 2.94 | 3.22 | 2.32 | 4.78 | 3.08 | 3.62 | 4.29 | 3.26 | 0.797 | 0.858 | 0.512 | 1.14 | 0.824 | 0.959 | 1.05 | 0.855
2 | Oc1cccc(-c2nc(N3CCOCC3)c3oc4ncccc4c3n2)c1 [PI-103] | 355 nM | 286 nM | 527 nM | 360 nM | 339 nM | 858 nM | 584 nM | 1360 nM | 2.15 | 1.91 | 2 | 1.8 | 2.08 | 2.37 | 2.26 | 2.53 | 0.136 | 0.118 | 0.00638 | 0.0085 | 0.119 | 0.0544 | 0.0881 | 0.0599
3 | Cc1ccc([N+](=O)[O-])cc1S(=O)(=O)N(C)/N=C/c1cnc2ccc(Br)cn12.Cl [PIK-75] | 40.2 nM | 30.1 nM | 70.5 nM | 70 nM | 84 nM | 25.8 nM | 82.1 nM | 117 nM | 1.56 | 1.33 | 1.09 | 1.71 | 1.01 | 0.988 | 1.5 | 1.61 | 0.121 | 0.00713 | 0.00345 | 0.00672 | 0.00398 | 0.0354 | 0.0119 | 0.0087
4 | COc1ccc2c(c1OC)N=C(NC(=O)c1cccnc1)N1CCN=C21 [PIK-90] | > 10000 nM | > 10000 nM | > 10000 nM | 3410 nM | > 10000 nM | 3060 nM | > 10000 nM | > 10000 nM | 2.75 | 2.7 | 2.46 | 3.42 | 3.1 | 2.42 | 3.98 | 3.07 | 0.616 | 0.175 | 0.53 | 0.822 | 0.655 | 0.358 | 1.02 | 0.693
5 | Cc1ccccc1-n1c(Cn2ncc3c(N)ncnc32)nc2cccc(C)c2c1=O [PIK-293] | > 10000 nM | > 10000 nM | > 10000 nM | > 10000 nM | > 10000 nM | > 10000 nM | > 10000 nM | > 10000 nM | 3.07 | 3.16 | 2.42 | 4.72 | 3.53 | 3.46 | 3.9 | 3.49 | 0.734 | 0.837 | 0.581 | 1.2 | 0.928 | 0.902 | 0.982 | 0.949

More lines, main results first:

Row | GI50, drug alone (786-O [3]) | GI50, drug alone (ACHN [5]) | SMILES | GI50, drug alone (TK-10 [1]) | GI50, drug alone (SN12C [2]) | GI50, drug alone (UO-31 [4]) | GI50, drug alone (CAKI-1 [6]) | GI50, drug alone (A498 [7]) | GI50, drug alone (769-P [8]) | AUC of dose-response viability curve (TK-10 [9]) | AUC of dose-response viability curve (SN12C [10]) | AUC of dose-response viability curve (786-O [11]) | AUC of dose-response viability curve (UO-31 [12]) | AUC of dose-response viability curve (ACHN [13]) | AUC of dose-response viability curve (CAKI-1 [14]) | AUC of dose-response viability curve (A498 [15]) | AUC of dose-response viability curve (769-P [16]) | minimum viability across doses (TK-10 [17]) | minimum viability across doses (SN12C [18]) | minimum viability across doses (786-O [19]) | minimum viability across doses (UO-31 [20]) | minimum viability across doses (ACHN [21]) | minimum viability across doses (CAKI-1 [22]) | minimum viability across doses (A498 [23]) | minimum viability across doses (769-P [24])
6 | 746 nM | 7460 nM | CC(=O)Nc1nc(C)c(-c2ccc(Cl)c(S(=O)(=O)NCCO)c2)s1 [PIK-93] | 8010 nM | 8030 nM | > 10000 nM | 5070 nM | > 10000 nM | > 10000 nM | 2.74 | 2.98 | 1.86 | 4.68 | 3.14 | 3.11 | 4.19 | 3.19 | 0.377 | 0.434 | 0.202 | 1.15 | 0.408 | 0.287 | 0.8 | 0.565
7 | 117 nM | 224 nM | CCn1nnc2c(N3CCOCC3)nc(-c3ccc(NC(=O)Nc4ccc(C(=O)N5CCN(C)CC5)cc4)cc3)nc21 [PKI-402] | 179 nM | 99.1 nM | 162 nM | 241 nM | 165 nM | 1140 nM | 1.71 | 1.66 | 1.66 | 1.99 | 1.89 | 1.91 | 2.25 | 2.51 | 0.0487 | 0.118 | 0.00561 | 0.0165 | 0.0633 | 0.0473 | 0.156 | 0.102
8 | 4860 nM | 2460 nM | CCCS(=O)(=O)Nc1ccc(F)c(C(=O)c2c[nH]c3ncc(Cl)cc23)c1F [PLX-4720] | > 10000 nM | > 10000 nM | > 10000 nM | 7550 nM | > 10000 nM | > 10000 nM | 3.13 | 3.44 | 2.5 | 4.19 | 2.57 | 3.33 | 4.12 | 3.18 | 0.574 | 0.875 | 0.335 | 0.944 | 0.197 | 0.278 | 0.885 | 0.817
9 | 1300 nM | 348 nM | CC(C)n1nc(-c2cc3cc(O)ccc3[nH]2)c2c(N)ncnc21 [PP242] | 522 nM | 677 nM | 4100 nM | 523 nM | 2910 nM | 1550 nM | 2.12 | 2.23 | 2.02 | 3.42 | 2.07 | 2.12 | 2.93 | 2.56 | 0.0788 | 0.0949 | 0.00205 | 0.00829 | 0.05 | 0.0389 | 0.0519 | 0.0576
